Measurements reported in the NIST ThermoML archive (doi:10.1016/j.jct.2017.03.006).
± gives the expanded uncertainty stated by the source.

Assay: molar heat capacity at constant pressure; xn = mol fraction of the nth substance listed
Details: Liquid, Flow calorimetry

Cc1ccc(C)c(C)c1 [1,2,4-trimethylbenzene] + CCCCO
molar heat capacity at constant pressure [J/K/mol]
Details | x2 = 0 | x2 = 0.1002 | x2 = 0.2327 | x2 = 0.3969 | x2 = 0.53 | x2 = 0.637 | x2 = 0.7176 | x2 = 0.7975 | x2 = 0.8594 | x2 = 0.9131
293.15 K, 100 kPa | 216.2 ± 3 | 220 ± 3.1 | 219.5 ± 3.1 | 214 ± 3 | 209.9 ± 3 | 203.6 ± 2.9 | 197 ± 2.8 | 192.5 ± 2.7 | 186.5 ± 2.6 | 181.9 ± 2.6
293.15 K, 5000 kPa | 215 ± 3 | 219 ± 3.1 | 219 ± 3.1 | 213.4 ± 3 | 208.8 ± 2.9 | 203.3 ± 2.9 | 196 ± 2.8 | 191.8 ± 2.7 | 186.3 ± 2.6 | 181.4 ± 2.6
293.15 K, 10000 kPa | 213.3 ± 3 | 217.3 ± 3.1 | 218.1 ± 3.1 | 212.8 ± 3 | 207.7 ± 2.9 | 202.4 ± 2.8 | 194.9 ± 2.7 | 190.8 ± 2.7 | 185.1 ± 2.6 | 181.1 ± 2.5
293.15 K, 15000 kPa | 212.5 ± 3 | 216 ± 3 | 217.4 ± 3.1 | 212.1 ± 3 | 206.3 ± 2.9 | 202 ± 2.8 | 194.2 ± 2.7 | 190.2 ± 2.7 | 184.1 ± 2.6 | 180.7 ± 2.5
293.15 K, 20000 kPa | 210.8 ± 3 | 215.4 ± 3 | 216.9 ± 3.1 | 211.3 ± 3 | 205.9 ± 2.9 | 201.1 ± 2.8 | 193.3 ± 2.7 | 189.6 ± 2.7 | 183.4 ± 2.6 | 180.3 ± 2.5
293.15 K, 25000 kPa | 209.8 ± 3 | 214.5 ± 3 | 216.3 ± 3 | 210.3 ± 3 | 204.7 ± 2.9 | 199.9 ± 2.8 | 192 ± 2.7 | 188.6 ± 2.7 | 182.4 ± 2.6 | 180 ± 2.5
313.15 K, 100 kPa | 222.5 ± 3.1 | 230.5 ± 3.2 | 231.1 ± 3.3 | 230 ± 3.2 | 224.9 ± 3.2 | 220.4 ± 3.1 | 214.4 ± 3 | 210.3 ± 3 | 204.5 ± 2.9 | 200.7 ± 2.8
313.15 K, 5000 kPa | 221.2 ± 3.1 | 229.4 ± 3.2 | 230.1 ± 3.2 | 228.9 ± 3.2 | 223 ± 3.1 | 218.9 ± 3.1 | 212.6 ± 3 | 209.1 ± 2.9 | 203.7 ± 2.9 | 199.4 ± 2.8
313.15 K, 10000 kPa | 219.6 ± 3.1 | 228.5 ± 3.2 | 229.8 ± 3.2 | 227.4 ± 3.2 | 222.3 ± 3.1 | 217.6 ± 3.1 | 211.5 ± 3 | 208.6 ± 2.9 | 203.3 ± 2.9 | 198.8 ± 2.8
313.15 K, 15000 kPa | 218.5 ± 3.1 | 227.3 ± 3.2 | 228.5 ± 3.2 | 226.4 ± 3.2 | 220.5 ± 3.1 | 216.5 ± 3 | 210.2 ± 3 | 207.8 ± 2.9 | 202.6 ± 2.9 | 197.7 ± 2.8
313.15 K, 20000 kPa | 217.7 ± 3.1 | 225.8 ± 3.2 | 227.3 ± 3.2 | 225.4 ± 3.2 | 219.2 ± 3.1 | 215.4 ± 3 | 209.3 ± 2.9 | 206.4 ± 2.9 | 202 ± 2.8 | 196.6 ± 2.8
313.15 K, 25000 kPa | 217.1 ± 3.1 | 225.5 ± 3.2 | 227 ± 3.2 | 224.3 ± 3.2 | 218.4 ± 3.1 | 213.6 ± 3 | 208.1 ± 2.9 | 206.1 ± 2.9 | 201.3 ± 2.8 | 196 ± 2.8

CCC(C)O (configuration not stated) [butan-2-ol] + Cc1ccc(C)c(C)c1
molar heat capacity at constant pressure [J/K/mol], x1 = 1
Details | 100 kPa | 5000 kPa | 10000 kPa | 15000 kPa | 20000 kPa | 25000 kPa
293.15 K | 189.1 ± 2.7 | 187.1 ± 2.6 | 185.5 ± 2.6 | 185.2 ± 2.6 | 183.6 ± 2.6 | 182.7 ± 2.6
313.15 K | 214.9 ± 3 | 213.1 ± 3 | 211.1 ± 3 | 209.4 ± 2.9 | 207.2 ± 2.9 | 204.9 ± 2.9
